# Data published in patent publication EP3322687B1, “2-BENZYL-INDANONE COMPOUNDS AS ANTICANCER AGENT AND A PROCESS FOR PREPARATION THEREOF” (Council of Scientific and Industrial Research, priority 2015, dated 2017).
# Several values for one entry are separate records, joined by “and”; a condition that tells them apart may be missing. Identical values can stand only once.
# Assays:
# Ehrlich Tumor (solid) = assay type: in vivo, Swiss mice
# Experimental: Ehrlich ascites carcinoma (EAC) cells were collected from the peritoneal cavity of the Swiss mice harbouring 8-10 days old ascitic tumor. 1x10^7 EAC cells were injected intramuscularly in right thigh of Swiss male mice selected for the experiment on day 0. The next day, animals were randomized and divided into different groups. Two treatment groups contained 7 animals each and one control group contained 10 animals. The first treatment group was given compound 2 (20 mg/kg i/p) from day 1-9. The second treatment group was treated with 5-fluorouracil (22 mg/kg, i.p) from day 1-9 and it served as positive control. The control group was similarly administered normal saline (0.2 ml, i.p.) from day 1-9. On day 9 & 13, tumor bearing thigh of each animal was shaved and longest and shortest diameters of the tumor were measured with the help of vernier caliper. Tumor weight of each animal was calculated using the following formula. Tumor weight (mg) = (Length(mm) × ([width(mm)])^2)/(2) [formula]
# The percent tumor growth inhibition was calculated on day 13 by comparing the average values of treated groups with that of control group. Tumor growth in saline treated control animals was taken to be 100%. Table 6. In-vivo anticancer activity of 2 against Ehrlich ascites carcinoma (solid)
# [1] = In-vivo acute oral toxicity; set-up: species or system Swiss albino mice; settings: for ALP / Albumin / Bilirubin / Body weight / Cholesterol / Creatinine / Haemoglobin / RBC / SGOT / SGPT / Serum Protein / Triglycerides / WBC: 7th day, Mean±SE, n=6
# Experimental: In view of potent anti-cancer activity of compound 2 in in-vitro model, acute and sub-acute oral toxicity of the same was carried out in Swiss albino mice for its further development into drug product. Experiment was conducted in accordance with the Organization for Economic Cooperation and Development (OECD) test guideline No 423 (1987).
# For the acute oral toxicity study, 30 mice (15 male and 15 female) were taken and divided into […] comprising 3 male and 3 female mice in each group weighing between 20-25 g. The animals were maintained at 22±5°C with humidity control and also on an automatic dark and light cycle of 12 hours. The animals were fed with the standard mice feed and provided ad libitum drinking water. Mice of group 1 (Group 1) were kept as control and animals of groups 2, 3, 4 and 5 (Groups II, III, IV & V) were kept as experimental. The animals were acclimatized for 7 days in the experimental environment prior to the actual experimentation. The test compound 2 was solubilized in dimethyl sulphoxide and then suspended in double distilled water (DDW) and was given at 5, 50, 300 and 1000mg/kg body weight to animals of groups 2, 3, 4 and 5 (Groups II, III, IV & V) respectively once orally. Control animals received only vehicle.
# The animals were checked for mortality and any signs of ill health at hourly interval on the day of administration of drug and there after a daily general case side clinical examination was carried out including changes in skin, mucous membrane, eyes, occurrence of secretion and excretion and also responses like lachrymation, piloerection respiratory patterns etc. Also changes in gait, posture and response to handling were also recorded. In addition to observational study, body weights were recorded and blood and serum samples were collected from all the animals on 7th day of the experiment in acute oral toxicity. The samples were analysed for total RBC, WBC, differential leucocytes count, haemoglobin percentage and biochemical parameters like ALP, SGPT, SGOT, total cholesterol, triglycerides, creatinine, bilirubin, serum protein, tissue protein, malonaldehyde and reduced GSH activity. The animals were then sacrificed and were necropsed for any gross pathological changes. Weights of vital organs like liver, heart, kidney etc. were recorded. Table 7. Effect of compound 2 as a single acute oral dose at 5, 50, 300 and 1000 mg/kg on body weight, haematological and serum biochemical parameters in Swiss albino mice (Mean±SE; n=6; a, P<0.001 compared to control, 5, 50, 300, 1000 mg/kg)
smiles,measurement,setting,value
"COc1cc(C2c3c(cc(OC)c(OC)c3OC)C(=O)C2Cc2ccc3c(c2)OCO3)cc(OC)c1OC (stereo not shown) [Compound 2, 2-(3"",4""-methylenedioxybenzyl)-3-(3',4',5'-trimethoxyphenyl)-4,5,6-trimethoxy-indan-1-one]",Day 13 Av. Tumor weights,"Ehrlich Tumor (solid); 20 mg/kg i/p day 1-9, Day 13",1178.35 ± 32.72 mg
same,%Tumor Growth Inhibition,"Ehrlich Tumor (solid); 20 mg/kg i/p day 1-9, day 13",42.77% and 42.771%
same,Mortality,"Ehrlich Tumor (solid); 20 mg/kg i/p day 1-9, dead/total animals",0/7
same,Day 13 Av. Body weights,"Ehrlich Tumor (solid); 20 mg/kg i/p day 1-9, male Swiss mice, Day 13",23.28 g
same,Av. Body weights (g) of animals on days 1,"Ehrlich Tumor (solid); 20 mg/kg i/p day 1-9, male Swiss mice, day 1",21.42 g
same,better activity (in-vivo) over the parent compound 12,"Ehrlich Tumor (solid); solid tumour, 20mg/kg dose, relative to compound 12",19.1%
same,ALP change as compare to control groups,"[1]; 1000 mg/kg body weight, single oral dose",significant changes
same,differential leucocytes counts,"[1]; single acute oral dose at 5, 50, 300 and 1000 mg/kg body weight, n=6, compared to control (Figure 2)",Non significant changes
same,absolute and relative organ weight,"[1]; single acute oral dose at 5, 50, 300 and 1000 mg/kg, n=6, compared to control (Figure 1)",Non significant changes
same,"observational changes, morbidity and mortality","[1]; single acute oral dose, up to the dose level of 1000 mg/kg body weight","No observational changes, morbidity and mortality"
same,ALP,[1]; single oral dose 5 mg/kg,167.3±16.5 U/L
same,Albumin,[1]; single oral dose 5 mg/kg,3.63 ± 0.28 g/dL
same,Bilirubin,[1]; single oral dose 5 mg/kg,0.14 ± 0.07 mg/dL
same,Body weight,[1]; single oral dose 5 mg/kg,23.97±0.64 gm
same,Cholesterol,[1]; single oral dose 5 mg/kg,104.0 ± 6.7 mg/dL
same,Creatinine,[1]; single oral dose 5 mg/kg,0.56 ± 0.10 mg/dL
same,Haemoglobin,[1]; single oral dose 5 mg/kg,13.55±0.60 gm/dL
same,RBC,[1]; single oral dose 5 mg/kg,5.93±0.39 million/mm3
same,SGOT,[1]; single oral dose 5 mg/kg,12.24±1.18 U/L
same,SGPT,[1]; single oral dose 5 mg/kg,15.74±1.03 U/L
same,Serum Protein,[1]; single oral dose 5 mg/kg,1.07 ± 0.06 mg/mL
same,Triglycerides,[1]; single oral dose 5 mg/kg,98.74 ± 3.11 mg/dL
same,WBC,[1]; single oral dose 5 mg/kg,7.95±0.64 1000*/mm3
same,ALP,[1]; single oral dose 50 mg/kg,191.6±27.6 U/L
same,Bilirubin,[1]; single oral dose 50 mg/kg,0.09 ± 0.01 mg/dL
same,Body weight,[1]; single oral dose 50 mg/kg,24.29±0.95 gm
same,Cholesterol,[1]; single oral dose 50 mg/kg,120.3 ± 10.4 mg/dL
same,Creatinine,[1]; single oral dose 50 mg/kg,0.69 ± 0.08 mg/dL
same,Haemoglobin,[1]; single oral dose 50 mg/kg,13.06±0.82 gm/dL
same,RBC,[1]; single oral dose 50 mg/kg,5.83±0.17 million/mm3
same,SGOT,[1]; single oral dose 50 mg/kg,25.76±5.40 U/L
same,SGPT,[1]; single oral dose 50 mg/kg,17.92±1.69 U/L
same,Serum Protein,[1]; single oral dose 50 mg/kg,1.13 ± 0.07 mg/mL
same,Triglycerides,[1]; single oral dose 50 mg/kg,74.95 ± 5.79 mg/dL
same,WBC,[1]; single oral dose 50 mg/kg,7.99±0.55 1000*/mm3
same,ALP,[1]; single oral dose 300 mg/kg,224.0±6.70 U/L
same,Albumin,[1]; single oral dose 300 mg/kg,3.63 ± 0.28 g/dL
same,Body weight,[1]; single oral dose 300 mg/kg,23.83±0.42 gm
same,Cholesterol,[1]; single oral dose 300 mg/kg,116.5 ± 15.6 mg/dL
same,Creatinine,[1]; single oral dose 300 mg/kg,0.76 ± 0.03 mg/dL
same,Haemoglobin,[1]; single oral dose 300 mg/kg,10.90±1.11 gm/dL
same,RBC,[1]; single oral dose 300 mg/kg,6.03±0.11 million/mm3
same,SGOT,[1]; single oral dose 300 mg/kg,18.71±3.16 U/L
same,SGPT,[1]; single oral dose 300 mg/kg,18.20±1.41 U/L
same,Serum Protein,[1]; single oral dose 300 mg/kg,1.09 ± 0.06 mg/mL
same,Triglycerides,[1]; single oral dose 300 mg/kg,104.94 ± 10.39 mg/dL
same,WBC,[1]; single oral dose 300 mg/kg,8.13±0.64 1000*/mm3
same,ALP,[1]; single oral dose 1000 mg/kg,234.3±44.5 U/L
same,Albumin,[1]; single oral dose 1000 mg/kg,3.26 ± 0.30 g/dL
same,Bilirubin,[1]; single oral dose 1000 mg/kg,0.12 ± 0.04 mg/dL
same,Body weight,[1]; single oral dose 1000 mg/kg,23.41±0.16 gm
same,Creatinine,[1]; single oral dose 1000 mg/kg,0.76 ± 0.09 mg/dL
same,Haemoglobin,[1]; single oral dose 1000 mg/kg,12.29±0.53 gm/dL
same,RBC,[1]; single oral dose 1000 mg/kg,6.10±0.27 million/mm3
same,SGOT,[1]; single oral dose 1000 mg/kg,35.49±6.57 U/L
same,SGPT,[1]; single oral dose 1000 mg/kg,11.97±1.67 U/L
same,Serum Protein,[1]; single oral dose 1000 mg/kg,1.42 ± 0.16 mg/mL
same,Triglycerides,[1]; single oral dose 1000 mg/kg,87.28 ± 4.39 mg/dL
same,WBC,[1]; single oral dose 1000 mg/kg,8.57±0.76 1000*/mm3
same,toxicity in in-vivo acute oral toxicity,[1]; up to 300mg/kg,no toxicity
same,tolerability,[1]; up to the dose level of 1000 mg/kg body weight as a single acute oral dose,well tolerated
